# From patent publication US12419865B2 (priority 2018, dated 2025)
# Like-named read-outs stand apart in the source and are kept apart here.
# How the values were obtained:
# LASV-p = experiment: microbe, parasite or virus in culture; assay type: cell-based, Lassa (LASV); settings: Vesicular stomatitis virus, Vero, read-out: LASV-p EC50
# MACV-p = experiment: organism not typed; assay type: cell-based, Machupo (MACV); settings: Vero, read-out: MACV-p EC50
# JUNV-p = experiment: organism not typed; assay type: cell-based, Junin (JUNV); settings: Vero, read-out: JUNV-p EC50
# TCRV-p = experiment: organism not typed; assay type: cell-based; settings: read-out: TCRV-p EC50
# VSV-p = experiment: microbe, parasite or virus in culture; assay type: cell-based; settings: Vesicular stomatitis virus, Vero, read-out: VSV-p EC50
# in vitro = settings: African green monkey
# replicative LASV = experiment: microbe, parasite or virus in culture; assay type: cell-based, Lassa Virus; settings: for EC90: Mammarenavirus lassaense
# [1] = 1 h, pH 7.4
# [2] = 1 h, pH 7.4; remark: listed apart in the source
# [3] = guinea pig, 1 h, pH 7.4
# [4] = system: native replicating Tacaribe (TCRV) virus; experiment: microbe, parasite or virus in culture; assay type: cell-based; settings: Mammarenavirus tacaribeense, Vero, 120 h, read-out: TCRV EC50
smiles,measurement,setting,value
"C=Cc1cc2nnn(-c3ccc(OC(C)C)cc3)c2cc1-c1ccc(OC(C)C)cc1 [Example C25, 1,6-bis(4-isopropoxyphenyl)-5-vinyl-1H-benzo[d][1,2,3]triazole]",EC50,LASV-p,6.78 nM
same,EC50,MACV-p,0.3 nM
same,EC50,JUNV-p,1.47 nM
same,EC50,TCRV-p; Vero,8.01 nM
same,EC50,VSV-p,> 10000 nM
same,CC50,in vitro,3870 nM
"Cc1nc2ncc(-c3ccc(OC(C)C)cc3)n2cc1-c1ccc(OC(C)C)cc1 [Example D27, 3,6-bis(4-isopropoxyphenyl)-7-methylimidazo[1,2-a]pyrimidine]",EC50,LASV-p,0.75 nM
same,EC50,MACV-p,0.85 nM
same,EC50,JUNV-p,0.78 nM
same,EC50,TCRV-p; Vero,0.2 nM
same,EC50,VSV-p,> 10000 nM
same,CC50,in vitro,2180 nM
"CC(C)Oc1ccc(-n2nnc3ccc(-c4cccc(C(C)(C)O)c4)cc32)cc1 [Example C17, 2-(3-(1-(4-isopropoxyphenyl)-1H-benzo[d][1,2,3]triazol-6-yl)phenyl)propan-2-ol]",EC50,LASV-p,15.8 nM
same,EC50,MACV-p,> 25 nM
same,EC50,JUNV-p,12.2 nM
same,EC50,TCRV-p; Vero,> 25 nM
same,EC50,VSV-p,> 10000 nM
same,CC50,in vitro,10500 nM
"[2H]C([2H])([2H])C([2H])(Oc1ccc(-c2cn3c(-c4ccc(OC(C)(C)C)cc4)cnc3cc2C)cc1)C([2H])([2H])[2H] [Example E30, 3-(4-(tert-butoxy)phenyl)-6-(4-(isopropoxy-d7)phenyl)-7-methylimidazo[1,2-a]pyridine]",EC50,LASV-p,0.39 nM
same,EC50,MACV-p,0.09 nM
same,EC50,JUNV-p,0.09 nM
same,EC50,TCRV-p,0.2 nM
same,Sl90,replicative LASV,">1,510"
same,EC90,"replicative LASV; Vero, read-out: VYR Assay EC90",< 14 nM
same,EC90,replicative LASV; read-out: EC90 in the VYR assay format,< 14 nM
same,CC50,in vitro,3800 nM
"CC(C)Oc1ccc(-c2cc3c(cc2F)nnn3-c2ccc(OC(C)C)cc2)cc1 [Example C13, 5-fluoro-1,6-bis(4-isopropoxyphenyl)-1H-benzo[d][1,2,3]triazole]",EC50,LASV-p,4 nM
same,EC50,MACV-p,0.66 nM
same,EC50,JUNV-p,0.27 nM
same,EC50,TCRV-p; Vero,1.53 nM
same,EC50,VSV-p,> 10000 nM
same,"Percent parent compound remaining at 60 minutes in liver microsomes, Human",[1],79.5%
same,CC50,in vitro,> 100000 nM
"CC(C)Oc1ccc(-c2cc3c(cc2C(N)=O)nnn3-c2ccc(OC(C)C)cc2)cc1 [Example C21, 1,6-bis(4-isopropoxyphenyl)-1H-benzo[d][1,2,3]triazole-5-carboxamide]",EC50,LASV-p,> 25 nM
same,EC50,MACV-p,> 25 nM
same,EC50,JUNV-p,> 25 nM
same,EC50,TCRV-p; Vero,> 25 nM
same,EC50,VSV-p,> 10000 nM
"CC(C)Oc1ccc(-n2nnc3ccc(-c4ccc(C(C)(C)O)cc4)cc32)cc1 [Example C16, 2-(4-(1-(4-isopropoxyphenyl)-1H-benzo[d][1,2,3]triazol-6-yl)phenyl)propan-2-ol]",EC50,LASV-p,3.02 nM
same,EC50,MACV-p,1.72 nM
same,EC50,JUNV-p,0.45 nM
same,EC50,TCRV-p; Vero,3.67 nM
same,EC50,VSV-p,> 10000 nM
same,"Percent parent compound remaining at 60 minutes in liver microsomes, Mouse",[2],57.4%
same,"Percent parent compound remaining at 60 minutes in liver microsomes, Human",[1],72.3%
same,"Percent parent compound remaining at 60 minutes in liver microsomes, Guinea",[3],61.9%
same,CC50,in vitro,4120 nM
"Cc1cc2ncc(-c3ccc(OC(C)C)cc3)n2cc1-c1ccc(C(C)(C)O)cc1 [Example B5, 2-(4-(3-(4-isopropoxyphenyl)-7-methylimidazo[1,2-a]pyridin-6-yl)phenyl)propan-2-ol]",EC50,LASV-p,0.53 nM
same,EC50,MACV-p,0.16 nM
same,EC50,JUNV-p,0.18 nM
same,EC50,TCRV-p; Vero,0.16 nM
same,EC50,TCRV-p,0.1 nM
same,EC50,VSV-p,> 10000 nM
same,EC50,[4],0.88 nM
same,"Percent parent compound remaining at 60 minutes in liver microsomes, Mouse",[2],16.4%
same,"Percent parent compound remaining at 60 minutes in liver microsomes, Human",[1],86.7%
same,"Percent parent compound remaining at 60 minutes in liver microsomes, Guinea",[3],7.4%
same,CC50,in vitro,3870 nM
"CC(C)Oc1ccc(-n2nnc3ccc(-c4cccc(OC(C)C)c4)cc32)cc1 [Example C18, 6-(3-isopropoxyphenyl)-1-(4-isopropoxyphenyl)-1H-benzo[d][1,2,3]triazole]",EC50,LASV-p,> 25 nM
same,EC50,MACV-p,> 25 nM
same,EC50,JUNV-p,> 25 nM
same,EC50,TCRV-p; Vero,> 25 nM
same,EC50,VSV-p,> 10000 nM
"CC(C)Oc1ccc(-c2ccc3nnn(-c4ccc(OC(C)C)cc4)c3c2F)cc1 [Example C12, 7-fluoro-1,6-bis(4-isopropoxyphenyl)-1H-benzo[d][1,2,3]triazole]",EC50,LASV-p,1.31 nM
same,EC50,MACV-p,0.55 nM
same,EC50,JUNV-p,0.15 nM
same,EC50,TCRV-p; Vero,15 nM
same,EC50,VSV-p,> 10000 nM
same,"Percent parent compound remaining at 60 minutes in liver microsomes, Mouse",[2],90.3%
same,"Percent parent compound remaining at 60 minutes in liver microsomes, Human",[1],>95%
same,"Percent parent compound remaining at 60 minutes in liver microsomes, Guinea",[3],>95%
same,CC50,in vitro,> 100000 nM
"COc1cc2nnn(-c3ccc(O)cc3)c2cc1-c1ccc(O)cc1 [Example C24, 4,4′-(5-methoxy-1H-benzo[d][1,2,3]triazole-1,6-diyl)diphenol]",EC50,LASV-p,4.62 nM
same,EC50,MACV-p,> 25 nM
same,EC50,JUNV-p,19 nM
same,EC50,TCRV-p; Vero,18.4 nM
same,EC50,VSV-p,> 10000 nM
same,CC50,in vitro,32200 nM
"Cc1c(-c2ccc(OC(C)C)cc2)ccc2nnn(-c3ccc(OC(C)C)cc3)c12 [Example C14, 1,6-bis(4-isopropoxyphenyl)-7-methyl-1H-benzo[d][1,2,3]triazole]",EC50,LASV-p,2.44 nM
same,EC50,MACV-p,0.28 nM
same,EC50,JUNV-p,0.17 nM
same,EC50,TCRV-p; Vero,4.7 nM
same,EC50,VSV-p,> 10000 nM
same,"Percent parent compound remaining at 60 minutes in liver microsomes, Mouse",[2],>95%
same,"Percent parent compound remaining at 60 minutes in liver microsomes, Human",[1],>95%
same,"Percent parent compound remaining at 60 minutes in liver microsomes, Guinea",[3],>95%
same,CC50,in vitro,> 100000 nM
"Cc1cc2ncn(-c3ccc(OC(C)C)cc3)c2cc1-c1ccc(C(C)(C)O)cc1 [Example A3, 2-(4-(1-(4-isopropoxyphenyl)-5-methyl-1H-benzo[d]imidazol-6-yl)phenyl)propan-2-ol]",EC50,LASV-p,0.75 nM
same,EC50,MACV-p,0.17 nM
same,EC50,JUNV-p,0.4 nM
same,EC50,TCRV-p; Vero,0.24 nM
same,EC50,TCRV-p,0.21 nM
same,EC50,VSV-p,> 10000 nM
same,EC50,[4],0.87 nM
same,"Percent parent compound remaining at 60 minutes in liver microsomes, Mouse",[2],25.4%
same,"Percent parent compound remaining at 60 minutes in liver microsomes, Human",[1],89.9%
same,"Percent parent compound remaining at 60 minutes in liver microsomes, Guinea",[3],67.6%
same,CC50,in vitro,4500 nM
"CC(C)Oc1ccc(-c2cc3c(cc2C(=O)O)nnn3-c2ccc(OC(C)C)cc2)cc1 [Example C20, 1,6-bis(4-isopropoxyphenyl)-1H-benzo[d][1,2,3]triazole-5-carboxylic acid]",EC50,LASV-p,> 25 nM
same,EC50,MACV-p,> 25 nM
same,EC50,JUNV-p,> 25 nM
same,EC50,TCRV-p; Vero,> 25 nM
same,EC50,VSV-p,> 10000 nM
"Cc1cc2ncc(-c3ccc(C(C)(C)O)cc3)n2cc1-c1ccc(C(C)(C)O)cc1 [Example B9, 2,2′-((7-methylimidazo[1,2-a]pyridine-3,6-diyl)bis(4,1-phenylene))bis(propan-2-ol)]",EC50,LASV-p,> 25 nM
same,EC50,MACV-p,> 25 nM
same,EC50,JUNV-p,> 25 nM
same,EC50,TCRV-p; Vero,16.1 nM
same,EC50,VSV-p,> 10000 nM
"Cc1nc2ncc(-c3ccc(C(C)(C)O)cc3)n2cc1-c1ccc(OC(C)C)cc1 [Example D29, 2-(4-(6-(4-isopropoxphenyl)-7-methylimidazo[1,2-a]pyrimidin-3-yl)phenyl)propan-2-ol]",EC50,LASV-p,1.84 nM
same,EC50,MACV-p,0.87 nM
same,EC50,JUNV-p,1.03 nM
same,EC50,TCRV-p; Vero,1.27 nM
same,EC50,VSV-p,> 10000 nM
same,CC50,in vitro,42100 nM
"CC(C)Oc1ccc(-c2cc3c(cc2N)nnn3-c2ccc(OC(C)C)cc2)cc1 [Example C23, 1,6-bis(4-isopropoxyphenyl)-1H-benzo[d][1,2,3]triazol-5-amine]",EC50,LASV-p,6.72 nM
same,EC50,MACV-p,0.53 nM
same,EC50,JUNV-p,0.29 nM
same,EC50,TCRV-p; Vero,0.96 nM
same,EC50,VSV-p,> 10000 nM
same,CC50,in vitro,43000 nM
"COc1cc2nnn(-c3ccc(OC(C)C)cc3)c2cc1-c1ccc(OC(C)C)cc1 [Example C15, 1,6-bis(4-isopropoxyphenyl)-5-methoxy-1H-benzo[d][1,2,3]triazole]",EC50,LASV-p,23.4 nM
same,EC50,MACV-p,7.09 nM
same,EC50,JUNV-p,3.06 nM
same,EC50,TCRV-p; Vero,11.4 nM
same,EC50,VSV-p,> 10000 nM
same,CC50,in vitro,98400 nM
"CC(C)Oc1ccc(-c2cc3c(cc2CO)nnn3-c2ccc(OC(C)C)cc2)cc1 [Example C19, (1,6-bis(4-isopropoxyphenyl)-1H-benzo[d][1,2,3]triazol-5-yl)methanol]",EC50,LASV-p,22.5 nM
same,EC50,MACV-p,3.82 nM
same,EC50,JUNV-p,0.75 nM
same,EC50,TCRV-p; Vero,8 nM
same,EC50,VSV-p,> 10000 nM
same,CC50,in vitro,81700 nM
"Cc1nc2ncc(-c3ccc(OC(C)(C)C)cc3)n2cc1-c1ccc(OC(C)C)cc1 [Example D28, 3-(4-(tert-butoxy)phenyl)-6-(4-isopropoxyphenyl)-7-methylimidazo[1,2-a]pyrimidine]",EC50,LASV-p,0.3 nM
same,EC50,MACV-p,0.31 nM
same,EC50,JUNV-p,0.4 nM
same,EC50,TCRV-p; Vero,0.15 nM
same,EC50,VSV-p,> 10000 nM
same,CC50,in vitro,12300 nM
"COC(=O)c1cc2nnn(-c3ccc(OC(C)C)cc3)c2cc1-c1ccc(OC(C)C)cc1 [Example C10, methyl 1,6-bis(4-isopropoxyphenyl)-1H-benzo[d][1,2,3]triazole-5-carboxylate]",EC50,LASV-p,20.6 nM
same,EC50,MACV-p,4.05 nM
same,EC50,JUNV-p,11 nM
same,EC50,TCRV-p; Vero,12.3 nM
same,EC50,VSV-p,> 10000 nM
same,CC50,in vitro,> 100000 nM
"CC(C)Oc1ccc(-c2cc3c(cc2CN)nnn3-c2ccc(OC(C)C)cc2)cc1 [Example C22, (1,6-bis(4-isopropoxyphenyl)-1H-benzo[d][1,2,3]triazol-5-yl)methanamine]",EC50,LASV-p,> 25 nM
same,EC50,MACV-p,> 25 nM
same,EC50,JUNV-p,> 25 nM
same,EC50,TCRV-p; Vero,> 25 nM
same,EC50,VSV-p,> 10000 nM
"CCc1cc2nnn(-c3ccc(OC(C)C)cc3)c2cc1-c1ccc(OC(C)C)cc1 [Example C26, 5-ethyl-1,6-bis(4-isopropoxphenyl)-1H-benzo[d][1,2,3]triazole]",EC50,LASV-p,3.9 nM
same,EC50,MACV-p,0.04 nM
same,EC50,JUNV-p,0.1 nM
same,EC50,TCRV-p; Vero,5.92 nM
same,EC50,VSV-p,> 10000 nM
same,CC50,in vitro,3590 nM
